Measured values published in US20220378901A1, “APPLICATION OF PSEUDOMONAS AERUGINOSA VACCINE IN RESPIRATORY DISEASE” (Sichuan University, priority 2019, published 2022).

Assays:
SKLBPA1 [1] = assay: Immunoprotection against SKLBPA1 pulmonary infection; type: in vivo, Pseudomonas aeruginosa
Text: . […] One week after the last immunization, SKLBPA1 (which is the homologous strain of vaccine bacteria) and clinical carbapenem-resistant Pseudomonas aeruginosa (CRPA) C58 (from sputum, the drug sensitivity information of clinical C58 is shown in Table 7, which is different from the serotype of vaccine bacteria) are used for challenge.

SKLBPA1 [2] = assay: Efficacy against infection of vaccine alone or in combination with antibiotics; details: 24 h after infection; no immunization; ATM 4 times (2 h, 4 h, 6 h, 8 h, 100 mg/kg/time); Model 24 h 6.86 ± 0.45
Method: The mice in the immunization group are subcutaneously immunized with SKLB-V1 in the groin at 1×10^7 CFU/100 μL, with 3 injections. […] 24 h after the last immunization, the bacteria SKLBPA1 are used for challenge.

C[C@H]1[C@H](NC(=O)/C(=N\OC(C)(C)C(=O)O)c2csc(N)n2)C(=O)N1S(=O)(=O)O [Aztreonam, aztreonam]
Bacterial Load log10CFU (SKLBPA1 [1]; in vivo): 4.31 ± 1.27 log10CFU | Bacterial Load log10CFU (SKLBPA1 [1]; mice lung tissue, 4 h after infection, SKLB-V1 1×10^7 CFU s.c. at 0, 1st, 2nd weeks, aztreonam 100 mg/kg i.p. from 2 h, model 4.50 ± 1.05): 4.68 ± 0.22 log10CFU | Lung LOG10CFU (SKLBPA1 [2]): 4.11 ± 0.44 LOG10CFU
